Measurements published in PubChem BioAssay (NCI).
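A five-concentration, 48-hour dose response in 96-well plates underlies each endpoint, interpolated linearly between surrounding concentrations. TGI: total growth inhibition.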

Legend:
Assay in all cases: NCI anticancer screen, dose series, 48 h
NCI-H522 lung = system: NCI-H522 lung
MOLT-4 leukemia = system: MOLT-4 leukemia
OVCAR-8 ovarian = system: OVCAR-8 ovarian
TK-10 renal = system: TK-10 renal
NCI-H460 lung = system: NCI-H460 lung
HCT-116 colon = system: HCT-116 colon
MALME-3M melanoma = system: MALME-3M melanoma
NCI/ADR-RES ovarian = system: NCI/ADR-RES ovarian
MDA-MB-231 breast = system: MDA-MB-231 breast
SN12C renal = system: SN12C renal

O=C1NC(=O)C(C(=O)C(=O)Nc2cc(Cl)ccc2Cl)C(=O)N1
TGI (NCI-H522 lung): > 100 µM | TGI (MOLT-4 leukemia): > 100 µM | TGI (OVCAR-8 ovarian): > 100 µM | TGI (TK-10 renal): > 100 µM | TGI (NCI-H460 lung): > 100 µM | TGI (HCT-116 colon): > 100 µM | TGI (MALME-3M melanoma): > 100 µM

N=c1c2sc3nc4ccccc4n3c2ncn1Cc1ccccc1
TGI (NCI-H522 lung): > 100 µM | TGI (MOLT-4 leukemia): > 100 µM | TGI (OVCAR-8 ovarian): > 100 µM | TGI (NCI/ADR-RES ovarian): > 100 µM | TGI (TK-10 renal): > 100 µM | TGI (HCT-116 colon): > 100 µM | TGI (MDA-MB-231 breast): > 100 µM | TGI (MALME-3M melanoma): > 100 µM

CCOC(=O)COc1cc(-c2ccccc2F)nc2cc3c(cc12)OCO3
TGI (MOLT-4 leukemia): 84.5 µM | TGI (OVCAR-8 ovarian): > 100 µM | TGI (SN12C renal): > 100 µM | TGI (NCI/ADR-RES ovarian): > 100 µM | TGI (TK-10 renal): > 100 µM | TGI (HCT-116 colon): > 100 µM | TGI (MDA-MB-231 breast): > 100 µM | TGI (MALME-3M melanoma): > 100 µM

CCCCn1c(-c2ccccc2)cs/c1=N\N=C1C=C(C(C)(C)C)C(=O)C(C(C)(C)C)=C1
TGI (MOLT-4 leukemia): > 100 µM | TGI (OVCAR-8 ovarian): > 100 µM | TGI (SN12C renal): > 100 µM | TGI (TK-10 renal): > 100 µM | TGI (NCI-H460 lung): > 100 µM | TGI (HCT-116 colon): > 100 µM | TGI (MALME-3M melanoma): > 100 µM

COc1cc(C2CC(C)(N3CCOCC3)Oc3cc4c(cc32)OCO4)cc(OC)c1OC (stereo unspecified)
TGI (NCI-H522 lung): > 100 µM | TGI (MOLT-4 leukemia): > 100 µM | TGI (OVCAR-8 ovarian): > 100 µM | TGI (SN12C renal): > 100 µM | TGI (NCI/ADR-RES ovarian): > 100 µM | TGI (NCI-H460 lung): > 100 µM | TGI (HCT-116 colon): > 100 µM | TGI (MDA-MB-231 breast): > 100 µM | TGI (MALME-3M melanoma): > 100 µM

N/C(=N\N=C\c1cc2ccccc2s1)c1cnccn1
TGI (NCI-H522 lung): > 100 µM | TGI (OVCAR-8 ovarian): > 100 µM | TGI (SN12C renal): > 100 µM | TGI (NCI/ADR-RES ovarian): > 100 µM | TGI (TK-10 renal): > 100 µM | TGI (NCI-H460 lung): > 100 µM | TGI (HCT-116 colon): > 100 µM | TGI (MDA-MB-231 breast): > 100 µM

C=C1CC[C@@]2(C)[C@@H]([C@@H]1C)[C@H]1CC[C@@H]3[C@@]4(C)CC[C@H](O)C(C)(C)[C@@H]4CC[C@@]3(C)[C@]1(C)C[C@@H]2O
TGI (NCI-H522 lung): 4.52 µM | TGI (MOLT-4 leukemia): > 100 µM | TGI (SN12C renal): > 100 µM | TGI (NCI/ADR-RES ovarian): 14.2 µM | TGI (TK-10 renal): 27 µM | TGI (NCI-H460 lung): 4.7 µM | TGI (HCT-116 colon): > 23.9 µM | TGI (MDA-MB-231 breast): 4.75 µM | TGI (MALME-3M melanoma): 12.3 µM

O=[N+]([O-])c1ccc(CSc2nn(Cc3ccc([N+](=O)[O-])cc3)cc3ncnc2-3)cc1
TGI (NCI-H522 lung): 67.8 µM | TGI (MOLT-4 leukemia): > 100 µM | TGI (OVCAR-8 ovarian): > 100 µM | TGI (SN12C renal): > 100 µM | TGI (NCI/ADR-RES ovarian): > 100 µM | TGI (TK-10 renal): > 100 µM | TGI (HCT-116 colon): > 100 µM | TGI (MDA-MB-231 breast): > 100 µM | TGI (MALME-3M melanoma): 65.2 µM

Cc1ccc(S(=O)(=O)N(CC(O)COc2ccccc2)c2c(F)c(F)cc(F)c2F)cc1 (stereo unspecified)
TGI (MOLT-4 leukemia): 2.25 µM | TGI (OVCAR-8 ovarian): 49.7 µM | TGI (SN12C renal): 49.9 µM | TGI (NCI/ADR-RES ovarian): 42 µM | TGI (TK-10 renal): 84.1 µM | TGI (NCI-H460 lung): 35.3 µM | TGI (HCT-116 colon): > 100 µM | TGI (MDA-MB-231 breast): 50.8 µM | TGI (MALME-3M melanoma): 64.1 µM

CC1=C(C(=O)NNC(=O)Cc2ccccc2)CC(C(=O)NNC(=O)Cc2ccccc2)=C(C)N1
TGI (OVCAR-8 ovarian): > 100 µM | TGI (SN12C renal): > 100 µM | TGI (NCI/ADR-RES ovarian): > 100 µM | TGI (TK-10 renal): > 100 µM | TGI (NCI-H460 lung): > 100 µM | TGI (HCT-116 colon): > 100 µM | TGI (MDA-MB-231 breast): > 100 µM

Cc1nc2cn3c(c2c(=O)[nH]1)CCCCC3
TGI (MOLT-4 leukemia): > 100 µM | TGI (OVCAR-8 ovarian): > 100 µM | TGI (NCI/ADR-RES ovarian): > 100 µM | TGI (TK-10 renal): > 100 µM | TGI (NCI-H460 lung): > 100 µM | TGI (HCT-116 colon): > 100 µM | TGI (MDA-MB-231 breast): 69.7 µM

Cc1ccsc1/C=N/NC1=NCCN1
TGI (MOLT-4 leukemia): > 100 µM | TGI (OVCAR-8 ovarian): > 100 µM | TGI (SN12C renal): > 100 µM | TGI (NCI/ADR-RES ovarian): > 100 µM | TGI (TK-10 renal): > 100 µM | TGI (HCT-116 colon): > 100 µM | TGI (MDA-MB-231 breast): > 100 µM | TGI (MALME-3M melanoma): > 100 µM

COc1c(C)c(C/C=C(\C)CC/C=C(\C)CC/C=C(\C)CCC=C(C)C)c(OC)c(OC)c1OC
TGI (NCI-H522 lung): > 100 µM | TGI (MOLT-4 leukemia): > 100 µM | TGI (OVCAR-8 ovarian): > 100 µM | TGI (SN12C renal): > 100 µM | TGI (NCI/ADR-RES ovarian): > 100 µM | TGI (TK-10 renal): > 100 µM | TGI (NCI-H460 lung): > 100 µM | TGI (HCT-116 colon): > 100 µM | TGI (MDA-MB-231 breast): > 100 µM

N#C/C(=C\c1ccc(O)c(O)c1)c1c(C#N)c(N)nn1-c1ccccc1
TGI (NCI-H522 lung): 13.2 µM | TGI (OVCAR-8 ovarian): 29.2 µM | TGI (SN12C renal): 39.4 µM | TGI (TK-10 renal): > 100 µM | TGI (NCI-H460 lung): 38.3 µM | TGI (HCT-116 colon): 19.6 µM | TGI (MALME-3M melanoma): 26.8 µM

O=C(Nc1ccccc1[N+](=O)[O-])/C(=N/Nc1cccc(Cl)c1)c1c(O)c2ccccc2oc1=O
TGI (NCI-H522 lung): > 100 µM | TGI (MOLT-4 leukemia): > 100 µM | TGI (TK-10 renal): > 100 µM | TGI (NCI-H460 lung): > 100 µM | TGI (HCT-116 colon): 53.6 µM | TGI (MALME-3M melanoma): > 100 µM

C=CCn1c(-c2cc(C(C)(C)C)c(O)c(C(C)(C)C)c2)cs/c1=N\C(P(=O)(O)O)P(=O)(O)O
TGI (MOLT-4 leukemia): > 100 µM | TGI (OVCAR-8 ovarian): > 100 µM | TGI (SN12C renal): > 100 µM | TGI (NCI/ADR-RES ovarian): > 100 µM | TGI (TK-10 renal): > 100 µM | TGI (NCI-H460 lung): > 100 µM | TGI (HCT-116 colon): > 100 µM | TGI (MDA-MB-231 breast): > 100 µM | TGI (MALME-3M melanoma): > 100 µM

COC(=O)C1OC(O[C@H]2CC[C@]3(C)[C@H]4CC=C5[C@@H]6CC(C)(C)CC[C@]6(C(=O)OC)CC[C@@]5(C)[C@]4(C)CC[C@H]3C2(C)C)C(O)C(O)C1O (stereo partly specified)
TGI (NCI-H522 lung): 35.2 µM | TGI (MOLT-4 leukemia): > 100 µM | TGI (OVCAR-8 ovarian): 31.2 µM | TGI (SN12C renal): 26.8 µM | TGI (NCI/ADR-RES ovarian): 36.1 µM | TGI (NCI-H460 lung): 25.7 µM | TGI (HCT-116 colon): 26.2 µM | TGI (MDA-MB-231 breast): 19.2 µM | TGI (MALME-3M melanoma): 38.2 µM

O=C(NN1C(=O)C(Cl)C1c1cccc(O)c1)c1ccccc1O (stereo unspecified)
TGI (NCI-H522 lung): > 100 µM | TGI (MOLT-4 leukemia): > 100 µM | TGI (OVCAR-8 ovarian): > 100 µM | TGI (SN12C renal): > 100 µM | TGI (TK-10 renal): > 100 µM | TGI (NCI-H460 lung): > 100 µM | TGI (HCT-116 colon): > 100 µM | TGI (MALME-3M melanoma): > 100 µM

O=C1c2ccccc2N=C(c2cc3c(cc2Cl)Sc2nccn2S3(=O)=O)OS(=O)(=O)N1c1ccccc1
TGI (NCI-H522 lung): 25.5 µM | TGI (MOLT-4 leukemia): 32.8 µM | TGI (OVCAR-8 ovarian): 44.5 µM | TGI (SN12C renal): > 100 µM | TGI (TK-10 renal): > 100 µM | TGI (NCI-H460 lung): > 100 µM | TGI (HCT-116 colon): 31.5 µM | TGI (MDA-MB-231 breast): 56.2 µM | TGI (MALME-3M melanoma): > 100 µM

O=S(=O)(O)c1ccc2c(N=Nc3cccc4ccccc34)c(O)ccc2c1
TGI (NCI-H522 lung): > 100 µM | TGI (MOLT-4 leukemia): > 100 µM | TGI (OVCAR-8 ovarian): > 100 µM | TGI (SN12C renal): > 100 µM | TGI (NCI/ADR-RES ovarian): > 100 µM | TGI (TK-10 renal): > 100 µM | TGI (HCT-116 colon): > 100 µM | TGI (MDA-MB-231 breast): > 100 µM | TGI (MALME-3M melanoma): > 100 µM

CCOC(=O)NN(C(=O)OCC)c1ccc(N=Nc2ccc(OC)cc2)n1C
TGI (NCI-H522 lung): 60.4 µM | TGI (MOLT-4 leukemia): > 100 µM | TGI (OVCAR-8 ovarian): > 100 µM | TGI (SN12C renal): > 100 µM | TGI (NCI/ADR-RES ovarian): 94.6 µM | TGI (TK-10 renal): > 100 µM | TGI (HCT-116 colon): 34.4 µM | TGI (MDA-MB-231 breast): 65.5 µM | TGI (MALME-3M melanoma): 62.7 µM

CC1CC(=O)Nc2ccc(Cl)cc2N1C(=O)CN1CCC(CCCCN(C)C)CC1 (stereo unspecified)
TGI (MOLT-4 leukemia): > 100 µM | TGI (OVCAR-8 ovarian): > 100 µM | TGI (SN12C renal): > 100 µM | TGI (TK-10 renal): > 100 µM | TGI (NCI-H460 lung): > 100 µM | TGI (HCT-116 colon): > 100 µM | TGI (MALME-3M melanoma): > 100 µM

CC(C)OP(=O)(OC(C)C)C(=NCCO)NNc1ccc([N+](=O)[O-])cc1
TGI (NCI-H522 lung): > 100 µM | TGI (MOLT-4 leukemia): > 100 µM | TGI (OVCAR-8 ovarian): > 100 µM | TGI (SN12C renal): > 100 µM | TGI (TK-10 renal): > 100 µM | TGI (NCI-H460 lung): > 100 µM | TGI (HCT-116 colon): > 100 µM | TGI (MALME-3M melanoma): > 100 µM
